Results: patent publication US20230142274A1 (SIMCERE PHARMACEUTICAL CO., LTD., priority 2020, published 2023)

Key:
CD-1 mouse plasma = test: Plasma protein binding rate assay (equilibrium dialysis); type: in vitro ADME; conditions: compound 1 μM, equilibrium dialysis 6 hours at 37° C.
Protocol: 1. CD-1 mouse plasma (BioIVT)
1. Formulation of a buffer solution containing 100 mM sodium phosphate and 150 mM NaCl: An alkaline solution containing Na2HPO4 (14.2 g/L) and NaCl (8.77 g/L) was formulated with ultrapure water. An acidic solution containing NaH2PO4 (12.0 g/L) and NaCl (8.77 g/L) was formulated with ultrapure water. The alkaline solution was titrated with the acidic solution until the pH value was 7.4, thus formulating the buffer solution containing 100 mM sodium phosphate and 150 mM NaCl.
2. Preparation of dialysis membrane: The dialysis membrane was immersed in ultrapure water for 60 minutes to separate the membrane into two pieces, then immersed in 20% ethanol for 20 minutes, and finally immersed in a buffer for dialysis for 20 minutes.
3. Preparation of plasma: Frozen plasma was thawed rapidly at room temperature. Thereafter, the plasma was centrifuged at 3220 g for 10 minutes at 4° C. to remove clots, and the supernatant was collected into a new centrifuge tube. The pH values of plasma were measured and recorded. The plasma with a pH value of 7 to 8 was used.
4. Formulation of compound-containing plasma samples: A 10 mM stock solution of the compound of the present disclosure or the positive control compound was diluted with DMSO to obtain a 200 μM working solution. 3 μl of the 200 μM working solution of the compound was added into 597 μl of mouse plasma to obtain a plasma sample with a final concentration of 1 μM.
5. Steps of equilibrium dialysis: The dialysis device was assembled according to the operating instructions. 120 μL of a plasma sample containing 1 μM compound was added on one side of the dialysis membrane, and an equal volume of dialysate (phosphate buffer solution) was added on the other side. Duplicate samples were set in the experiment. The dialysis plate was sealed and placed in an incubation device where the samples were incubated at 37° C. in an atmosphere containing 5% CO2 for 6 hours with a rotational speed of about 100 rpm. After the incubation was complete, the sealing membrane was removed. 50 μl of samples were respectively aspirated from the buffer solution side and the plasma side of each well and transferred into different wells of a new plate. 50 μl of blank plasma was added into the sample obtained from the phosphate buffer solution side, and an equal volume of blank phosphate buffer solution was added into the plasma sample, followed by the addition of 300 μl of acetonitrile containing the internal standard to precipitate protein. The sample was vortexed for 5 minutes and centrifuged at 3220 g for 30 minutes at 4° C. 100 μl of the supernatant was aspirated and transferred to the sample plate, mixed well with 100 μL of ultrapure water, and used for LC-MS/MS analysis.
The peak areas of the compounds on the buffer solution side and the plasma side were determined. The formula for calculating the plasma protein binding rate of the compound was as follows:
% Free rate=(the ratio of the peak area of the compound to the peak area of the internal standard on the buffer solution side/the ratio of the peak area of the compound to the peak area of the internal standard on the plasma side)×100
% Binding rate=100−% free rate

[1] = Pharmacokinetic experiment in mouse; type: in vivo; conditions: female CB17-SCID mice, oral dose 25 mg/kg; for half-life: mouse, plasma, read-out: Drug Elimination Half-life (converted)
Excerpt: CB17-SCID mice were purchased from Beijing Vital River Laboratory Animal Technology Co., Ltd.
DMSO, HP-β-CD (hydroxypropyl-β-cyclodextrin), PEG400 (polyethylene glycol 400), and Vitamin E TPGS (D-α-tocopherol polyethylene glycol 1000 succinate) were purchased from Sigma.
Six female CB17-SCID mice (20 g to 30 g, aged 4 to 6 weeks) were divided randomly into two groups, with 3 mice in each group. In Group 1, the compound in a vehicle of an aqueous solution containing 5% dimethyl sulfoxide and 95% hydroxypropyl-β-cyclodextrin (10%, w/v) was administered by intravenous injection via tail vein. In Group 2, a corresponding dose of the compound in a vehicle of an aqueous solution containing 30% polyethylene glycol 400 and 70% D-α-tocopherol polyethylene glycol 1000 succinate (10%, w/v) was orally administered. The animals were fed normally with food and water before experiment. The mice in each group underwent intravenous blood collection before administration and at 0.083 h (intravenous injection group only), 0.25 h, 0.5 h, 1 h, 2 h, 4 h, 6 h, 8 h, and 24 h after administration. The collected whole blood samples were placed in K2EDTA anticoagulation tubes and centrifuged for 5 min (4000 rpm, 4° C.) to collect the plasma for testing.
10 μL of the mouse plasma sample was taken, and 150 μL of acetonitrile solvent (containing the internal standard compound) was added to precipitate protein. After the resultant was vortexed for 0.5 min and centrifuged (4700 rpm, 4° C.) for 15 min, the supernatant was subjected to 2-fold dilution with water containing 0.05% (v/v) FA and was then subjected to quantitative measurement in LC-MS/MS system (AB Sciex Triple Quad 6500+). A calibration standard curve was prepared in CB17-SCID mouse plasma along with quality control samples to determine the plasma concentration. As for a 10× diluted sample, 2 μL of sample was taken and 18 μL of blank plasma was added. After being vortexed for 0.5 min, the mixture was added with 300 μL of acetonitrile solvent (containing the internal standard compound) so as to precipitate protein. The rest of the processing steps were the same as those for the undiluted samples.

Row | SMILES | % Binding Rate (CD-1 mouse plasma) | Drug Exposure [1] | Max. Drug Conc. [1] | Peak Time of Drug Conc. [1] | half-life [1]
1 | CC(C)OC(=O)Nc1ccc(-c2cnc([C@H]3CC[C@H](NC(=O)OC(C)C)CC3)s2)c(S(=N)(=O)C2CC2)c1 (stereo partly drawn) [Example 68, isopropyl trans-N-[3-(cyclopropylsulfonimidoyl)-4-[2-[4-(isopropoxycarbonylamino)cyclohexyl]thiazol-5-yl]phenyl]carbamate] | 97% | 156.699 µg·h/mL | 14798 ng/mL | 1.3 h | 5 h
2 | CC(C)OC(=O)NC1CCC(c2ncc(-c3ccc(Nc4ccc(F)cn4)cc3S(=N)(=O)C3CC3)s2)CC1 (stereo not drawn) [Example 81, isopropyl trans-N-[4-[5-[2-(cyclopropylsulfonimidoyl)]-4-[(5-fluoro-2-pyridyl)amino]phenyl]thiazol-2-yl]cyclohexyl]carbamate] | 99.7%^ | 223.309 µg·h/mL | 13563 ng/mL | 5 h | 10 h
3 | Cc1cc(Nc2ccc(-c3cnc([C@H]4CC[C@H](NC(=O)OC(C)C)CC4)s3)c(S(=O)(=O)C3COC3)c2)n[nH]1 [Example 92, isopropyl trans-N-[4-[5-[4-[(5-methyl-1H-pyrazol-3-yl)amino]-2-(oxetan-3-ylsulfonyl)phenyl]thiazol-2-yl]cyclohexyl]carbamate] | 98.8%^ | 40.08 µg·h/mL | 8038 ng/mL | 1 h | 3.6 h
